In US7655216B2, “Vaccine for activating helper function of CD8+ Tcells” (University of Pittsburgh - Of the Commonwealth of Higher …, priority 2007, dated 2010):
Entries after “also recorded” stand apart in the source; their conditions may differ. The star is where a group is joined. Cbz = O=C(OCc1ccccc1)*; CH2F = FC*

Assays:
[1] = tested on: SEB-loaded DCs co-cultured with memory-type CD8+ T cells; format: cell-based, human
PI-9 in DCs = assay: Intracellular PI-9 expression in DCs (flow cytometry); format: cell-based, human
Method: Flow cytometry. Cell surface phenotype was analyzed by flow cytometry using Beckman Coulter XL. The FITC and PE-labeled isotype controls (mouse IgG1 and IgG2a), anti-human CD86, anti-human perforin were obtained from BD Pharmingen. CD83 monoclonal antibody was purchased from Immunotech and PE-labeled Granzyme B antibody was obtained from Cell Sciences. Goat anti-mouse IgG-FITC conjugated was obtained from Caltag Laboratories. For detection of intracellular PI-9, PI-9 specific mouse monoclonal IgG1 antibody was used as described (Bladergroen et al., J. Immunol. 166:3218-3225 (2001)). Briefly, for intracellular staining of PI-9, DCs were washed and then blocked with human Ig for 10 minutes at room temperature. Subsequently, cells were permeabilized with 300 μl of Permiflow (Invirion, Frankfort, Mich.) for 60 minutes at room temperature and then washed. The cells were stained with unconjugated anti human PI-9 antibody for 20 minutes at room temperature followed by staining with FITC conjugated goat anti-mouse IgG antibody. Granzyme B and perforin staining were performed according to manufacturer's protocol, using Permiflow as permeabilization reagent. […]
Intracellular expression of PI-9 (open profiles) in DCs has been analyzed by flow cytometry before and after (15 and 120 minutes) the exposure to recombinant TNFα (50 ng/ml).

MC38 adenocarcinoma = tested on: MC38 adenocarcinoma; set-up: species or system C57BL/6 mice; conditions: mouse, in vivo, sc
[2] = tested on: immature DCs co-cultured with effector-type CD8+ T cells; format: cell-based, human
SEB loaded DCs = format: cell-based, human

## Infliximab
[1]
  DC survival in co-culture with memory-type CD8+ T cells: equally effective in converting the memory T cell-induced DC activation into memory T cell-induced DC death; also recorded: reduces DC survival
PI-9 in DCs; 10 hour time point
  memory-type CD8+ T cell-induced induction of PI-9 in DCs: blocks

## SIINFEKL [OVA257-264]
MC38 adenocarcinoma
  induction of MC38-specific CTL activity (killing MC38): more effective in killing MC38 than a DC vaccine loaded only with tumor antigen

## Cbz-IETD-CH2F
[2]
  CTL-induced DC death (survival of DCs): abrogated the CTL-induced DC death

## TNFα
PI-9 in DCs; recombinant TNFα 50 ng/ml, 15 and 120 minutes
  induction of PI-9 in DCs: Rapid induction of PI-9
[2]
  resistance of immature DCs to CTL killing: acquired resistance to CTL killing

## IETD-CHO
[2]
  CTL-induced DC death (survival of DCs): abrogated the CTL-induced DC death

## Concanamycin A
SEB loaded DCs
  DC activation / phenotypic maturation (CD86, CD83): enhance DC activation
[2]
  DC killing by effector-type CD8+ T cells: completely eliminated; also recorded: abrogated their DC-killing ability

## O=C(O)CN(CCOCCOCCN(CC(=O)O)CC(=O)O)CC(=O)O [EGTA]
[2]
  DC killing by effector-type CD8+ T cells: completely eliminated

## KAVYNFATC [LCMVgp33-41]
MC38 adenocarcinoma
  induction of MC38-specific CTL activity (killing MC38): more effective in killing MC38 than a DC vaccine loaded only with tumor antigen

B1: soluble TNF receptor I: recombinant human soluble TNF-RI (R&D Systems) (protein, UniProt P19438 30-211, looked up)
extracellular domain: LVPHLGDREKRDSVCPQGKYIHPQNNSICCTKCHKGTYLYNDCPGPGQDTDCRECESGSFTASENHLRHCLSCSKCRKEMGQVEISSCTVDRDTVCGCRKNQYRHYWSENLFQCFNCSLCLNGTVHLSCQEKQNTVCTCHAGFFLRENECVSCSNCKKSLECTKLCLPQIENVKGTEDSGTT
modifications: extracellular domain
[1]
  DC survival in co-culture with memory-type CD8+ T cells: equally effective in converting the memory T cell-induced DC activation into memory T cell-induced DC death
